From patent US7964531B2, “3-phenoxy-4-pyridazinol derivatives and herbicidal composition containing the same” (Mitsui Chemicals Agro, Inc., priority 2001, dated 2011) come the findings set out here.

For series [1], the system named is barnyardgrass (Echinochloa oryzicola Vasing.). The experiment in a line: Test Example 1: herbicidal effects, paddy-field pot test. Particulars: wettable powder applied 3 days after transplanting, judged after 25 days. It is filed as in vivo. As for the experimental part:
(§1) A paddy soil was filled in 1/10,000 are pot, and seeds of barnyardgrass (Echinochloa oryzicola Vasing.), Scirpus joncoides and annual broad-leaved weeds (Lindernia spp., Rotala indica) which are awaken from dormancy were mixed at the surface layer of 1 cm. Also, tuber of Cyperus serotinus which is germinated was planted, and further seedlings of paddy-field rice at 2.2-leaf stage were transplanted, and they were grown under the flooded condition in a greenhouse. After 3 days from transplanting, a predetermined chemical dosage of the wettable powder prepared in accordance with Preparation example 1 was diluted in water, and the solution was applied to the pot and herbicidal effects and crop injury against transplanted paddy-field rice were judged after 25 days from the treatment. Also, 3-(2-allylphenoxy)-6-chloro-4-methoxypyridazine described in Chemical Pharmaceutical Bulletin, 1972, vol. 20, No. 10, pp. 2191-2203 was used as Comparative compound. Incidentally, herbicidal effects and crop injury against transplanted paddy-field rice were judged by the following judgment standard, and “-” in the table means no test was carried out.
(§2) Judgment Standard • 0: Growth inhibition rate; 0 to 10% • 1: Growth inhibition rate; 11 to 30% • 2: Growth inhibition rate; 31 to 50% • 3: Growth inhibition rate; 51 to 70% • 4: Growth inhibition rate; 71 to 90% • 5: Growth inhibition rate; 91 to 100%.

The subject of series [2] is Cyperus serotinus. The description is as above. Particulars: chemical dosage 10 g/a; wettable powder applied 3 days after transplanting; judged after 25 days. The class given is in vivo. As for the experimental part:
as §1, §2

Series [3] concerns annual broad-leaved weeds (Lindernia spp., Rotala indica). Described as above. It is filed as in vivo. Particulars: wettable powder applied 3 days after transplanting, judged after 25 days. Here is the method: as §1, §2
The subject of series [4] is transplanted paddy-field rice. The experiment in a line: Test Example 1: crop injury against transplanted paddy-field rice. The class given is in vivo. Particulars: wettable powder applied 3 days after transplanting, judged after 25 days. As for the experimental part: as §1, §2

For `Oc1cc(Cl)nnc1Oc1cccc2c1CC1CC21` (stereo not drawn) [Example 15], in series [1] (chemical dosage 10 g/a), the “Herbicidal effects Barnyard grass” value is 1 (Growth inhibition rate; 11 to 30%). Besides, the “Herbicidal effects Cyperus serotinus” value in series [2] is reported as 5 (Growth inhibition rate; 91 to 100%). Besides, in series [3] (chemical dosage 10 g/a), the “Herbicidal effects Broad leaf” value is recorded as 5 (Growth inhibition rate; 91 to 100%). Moreover, in series [4] (chemical dosage 10 g/a), the “Crop injury against transplanted rice” value is 0 (Growth inhibition rate; 0 to 10%).
Turning to `Oc1cc(Cl)nnc1Oc1c(F)cc(C2CC2)cc1C1CC1` [Example 313], the “Herbicidal effects Barnyard grass” value in series [1] (chemical dosage 20 g/a) is listed as 1 (Growth inhibition rate; 11 to 30%). Further, the “Herbicidal effects Broad leaf” value in series [3] (chemical dosage 20 g/a) is listed as 5 (Growth inhibition rate; 91 to 100%). For the same compound, the “Crop injury against transplanted rice” value in series [4] (chemical dosage 20 g/a) is reported as 0 (Growth inhibition rate; 0 to 10%).
Regarding `CC(C)c1cccc(I)c1Oc1nnc(Cl)cc1O` [Example 258], the “Herbicidal effects Barnyard grass” value in series [1] (chemical dosage 10 g/a) is 3 (Growth inhibition rate; 51 to 70%). Besides, in series [3] (chemical dosage 10 g/a), the “Herbicidal effects Broad leaf” value is given as 5 (Growth inhibition rate; 91 to 100%). Also, in series [4] (chemical dosage 10 g/a), the “Crop injury against transplanted rice” value is listed as 0 (Growth inhibition rate; 0 to 10%).
`CCc1cc(I)cc(I)c1Oc1nnc(Cl)cc1O` [Example 316]: the “Herbicidal effects Barnyard grass” value in series [1] (chemical dosage 10 g/a) is 2 (Growth inhibition rate; 31 to 50%); in series [1] (chemical dosage 20 g/a), 3 (Growth inhibition rate; 51 to 70%). For the same compound, the “Herbicidal effects Broad leaf” value in series [3] (chemical dosage 10 g/a) and in series [3] (chemical dosage 20 g/a) was 5 (Growth inhibition rate; 91 to 100%) each time. In addition, the “Crop injury against transplanted rice” value in series [4] (chemical dosage 10 g/a) and in series [4] (chemical dosage 20 g/a) was 0 (Growth inhibition rate; 0 to 10%) each time.
With `COc1cccc(Br)c1Oc1nnc(Cl)cc1O` [Compound No. 778, 3-(2-Bromo-6-methoxyphenoxy)-6-chloro-4-pyridazinol], the melting point (commonly the temperature, or range, at which the solid turns liquid) was in the range of 220 to 221 °C.
Still for that read-out and setting: as for `Oc1cc(Cl)nnc1Oc1ccccc1CC1CC1` [Compound No. 311, 6-Chloro-3-[2-(cyclopropylmethyl)phenoxy]-4-pyridazinol], the figure is 165 to 168 °C; as for `COc1cccc(Oc2nnc(Cl)cc2O)c1OC` [Compound No. 503, 6-Chloro-3-(2,3-dimethoxyphenoxy)-4-pyridazinol], 199 to 201 °C; as for `Cc1ccccc1C(=O)Oc1cc(Cl)nnc1Oc1cccc(C(C)(C)C)c1` [Compound No. 1457, 3-(3-tert-Butylphenoxy)-6-chloro-4-pyridazinyl 2-methylbenzoate], 63 to 64 °C.
Same read-out and setting: as for `Cc1ccccc1Oc1nncc(Cl)c1O` [Compound No. 45, 5-Chloro-3-(2-methylphenoxy)-4-pyridazinol], the figure is 238 to 243 °C; as for `Oc1cc(Cl)nnc1Oc1cccc(-c2ccco2)c1` [Compound No. 419, 6-Chloro-3-[3-(2-furyl)phenoxy]-4-pyridazinol], 200 to 202 °C.
Same read-out and setting: as for `CCc1ccc2c(c1Oc1nnc(Cl)cc1O)CCC2` [Compound No. 1089, 6-Chloro-3-[(5-ethyl-2,3-dihydro-1H-inden-4-yl)oxy]-4-pyridazinol], the figure is 193 to 196 °C; as for `CCS(=O)(=O)Oc1cc(Cl)nnc1Oc1c(C)cccc1C1CC1` [Compound No. 2034, 6-Chloro-3-(2-cyclopropyl-6-methylphenoxy)-4-pyridazinyl ethanesulfonate], 96 to 97 °C; as for `COc1c(C)cc(C)c(C)c1Oc1nnc(Cl)cc1O` [Compound No. 1128, 6-Chloro-3-(2-methoxy-3,5,6-trimethylphenoxy)-4-pyridazinol], 209 to 210 °C.
`Cc1cc(C)c(F)c(Oc2nnc(Cl)cc2O)c1C` [Compound No. 2597, 6-Chloro-3-(2-fluoro-3,5,6-trimethylphenoxy)-4-pyridazinol] returned a melting point of 258 to 260 °C.
Consider `Cc1cccc(C2CC2)c1Oc1nnc(Cl)cc1O`, for which the melting point lay in the range of 201 to 202 °C.
Still for that read-out and setting: as for `CC(C)(C)c1cccc(C2CC2)c1Oc1nnc(Cl)cc1O` [Compound No. 914, 3-(2-tert-Butyl-6-cyclopropylphenoxy)-6-chloro-4-pyridazinol], the figure is 230 to 231 °C; as for `Cc1ccccc1C(=O)Oc1cc(Cl)nnc1Oc1cccc2ccccc12` [Compound No. 1461, 6-Chloro-3-(1-naphthyloxy)-4-pyridazinyl 2-methylbenzoate], 133 to 134 °C.
Still for that read-out and setting: as for `Cc1ccc(S(=O)(=O)Oc2cc(Cl)nnc2Oc2ccccc2C(C)C)cc1` [Compound No. 2222, 6-Chloro-3-(2-isopropylphenoxy)-4-pyridazinyl 4-methylbenzenesulfonate], the figure is 99 to 100 °C; as for `Oc1cc(Cl)nnc1Oc1cccc(C2CC2)c1` [Compound No. 417, 6-Chloro-3-(3-cyclopropylphenoxy)-4-pyridazinol], 179 to 181 °C.
Take `Cc1cccc(C)c1Oc1nnc(Cl)cc1O` [Compound No. 801, 6-Chloro-3-(2,6-dimethylphenoxy)-4-pyridazinol]: the melting point is 214 to 215 °C.
Still for that read-out and setting: as for `CC(C)c1cccc(Br)c1Oc1nnc(Cl)cc1O` [Compound No. 760, 3-(2-Bromo-6-isopropylphenoxy)-6-chloro-4-pyridazinol], the figure is 232 to 253 °C (dec.); as for `CC(C)(C)c1ccccc1Oc1nnc(Cl)c([Si](C)(C)C)c1O`, 160 to 163 °C; as for `Cc1cccc(C2CC2)c1Oc1nnc(Cl)cc1OS(=O)(=O)c1ccccc1` [Compound No. 2176, 6-Chloro-3-(2-cyclopropyl-6-methylphenoxy)-4-pyridazinyl benzenesulfonate], 105 to 106 °C.
`O=[N+]([O-])c1ccccc1Oc1nnc(Cl)cc1O` [Compound No. 383, 6-Chloro-3-(2-nitrophenoxy)-4-pyridazinol] returned a melting point of 99 to 100 °C.
Still for that read-out and setting: as for `Cc1cccc(C2CC2)c1Oc1nnc(Cl)cc1OC(=O)N(C)c1ccccn1`, the figure is 140 to 147 °C; as for `Oc1cc(Cl)nnc1Oc1ccccc1C1(F)CC1` [Compound No. 140, 6-Chloro-3-[2-(1-fluorocyclopropyl)phenoxy]-4-pyridazinol], 152 to 157 °C.
For the compound `Oc1cc(Cl)nnc1Oc1cccc(I)c1` [Compound No. 412, 6-Chloro-3-(3-iodophenoxy)-4-pyridazinol], the melting point was 202 to 203 °C.
The compound `Oc1cc(Cl)nnc1Oc1ccccc1` [Compound No. 123, 6-Chloro-3-phenoxy-4-pyridazinol] registered a melting point of 222 to 224 °C.
On the same count and under the same terms, as for `Cc1cccc(C2CC2)c1Oc1nnc(Cl)cc1OC(=O)CC(C)C` [Compound No. 1184, 6-Chloro-3-(2-cyclopropyl-6-methylphenoxy)-4-pyridazinyl 3-methylbutanoate], the figure is 71 to 74 °C.
The compound `Oc1cc(Cl)nnc1Oc1ccc(Cl)cc1` [Compound No. 427, 6-Chloro-3-(4-chlorophenoxy)-4-pyridazinol] registered a melting point of 226 to 231 °C.
Same read-out and setting: as for `Cc1ccc(S(=O)(=O)Oc2cc(Cl)nnc2Oc2cccc3ccccc23)cc1` [Compound No. 2240, 6-Chloro-3-(1-naphthyloxy)-4-pyridazinyl 4-methylbenzenesulfonate], the figure is 92 to 94 °C; as for `Cc1ccc(C(=O)Oc2cc(Cl)nnc2Oc2ccccc2C)cc1` [Compound No. 1553, 6-Chloro-3-(2-methylphenoxy)-4-pyridazinyl 4-methylbenzoate], 105 to 108 °C; as for `CC(=O)Oc1cc(Cl)nnc1Oc1c(C)cccc1C1CC1` [Compound No. 1151, 6-Chloro-3-(2-cyclopropyl-6-methylphenoxy)-4-pyridazinyl acetate], 98 to 101 °C.
`O=[N+]([O-])c1cccc(Oc2nnc(Cl)cc2O)c1` [Compound No. 424, 6-Chloro-3-(3-nitrophenoxy)-4-pyridazinol] showed a melting point of 217 to 219 °C.
The same measure, in the same setting: as for `CCc1c(C)cc(C)c(C)c1Oc1nnc(Cl)cc1O` [Compound No. 2601, 6-Chloro-3-(2-ethyl-3,5,6-trimethylphenoxy)-4-pyridazinol], the figure is 188 to 195 °C.
Consider `O=C(Oc1cc(Cl)nnc1Oc1ccccc1C1CC1)C1CC1` [Compound No. 1266, 6-Chloro-3-(2-cyclopropylphenoxy)-4-pyridazinyl cyclopropanecarboxylate], for which the melting point lay in the range of 122 to 125 °C.
On the same count and under the same terms, as for `Cc1ccccc1Oc1nnc(Cl)cc1OC(=O)N1CCCC1` [Compound No. 1924, 6-Chloro-3-(2-methylphenoxy)-4-pyridazinyl 1-pyrrolidinecarboxylate], the figure is 126 to 127 °C.
Same read-out and setting: as for `CCCCc1ccccc1Oc1nnc(Cl)cc1O` [Compound No. 133, 3-(2-Butylphenoxy)-6-chloro-4-pyridazinol], the figure is 149.5 to 150 °C.
In turn, `Oc1cc(Cl)nnc1Oc1cccc2c1CCCC2` [Compound No. 521, 6-Chloro-3-(5,6,7,8-tetrahydro-1-naphthalenyloxy)-4-pyridazinol] returned a melting point of 232 to 237 °C.
